Laboratory results taken from the supplement of paper PMC10627819.

Assays:
[1] = tested on: S. aureus DSM 20231; experiment: Bliss interaction score (quartile over a dose matrix) (fitness difference); higher = more antagonism (negative = synergy)
Method in brief: (§1)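 Quartiles of the Bliss score were taken over technical, biological and donor/recipient replicates. That score is observed fitness minus the product of the single-drug fitness values, which were inferred from combination data. Fitness itself is OD595 at entry into stationary phase divided by the plate's robust no-drug mean, with a cap at 1.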

[2] = tested on: B. subtilis 168; experiment: as above
Method in brief: as §1

[3] = tested on: S. aureus Newman; experiment: as above
Method in brief: as §1

[4] = tested on: S. pneumoniae D39V; experiment: as above
Method in brief: as §1

[5] = tested on: B. subtilis 168; experiment: fitness (endpoint OD595 vs no drug) (fraction); higher = more growth
Method in brief: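 In 384-well plates at 37 °C, cultures began at OD595 0.01 in 30 µl, with 55 µl used for S. pneumoniae. OD595 readings every 30 min for 14 h were corrected by the first reading. Fitness divides the stationary-phase transition optical density by the robust mean of no-drug control wells. The result is capped at 1.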
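Wherever Bliss interaction score (quartile over a dose matrix) is given: first quartile when negative (synergy) and third quartile when positive (antagonism).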

CC[C@H](C)[C@H](N)C1=N[C@H](C(=O)N[C@@H](CC(C)C)C(=O)N[C@H](CCC(=O)O)C(=O)N[C@H](C(=O)N[C@H]2CCCCNC(=O)[C@H](CC(N)=O)NC(=O)[C@@H](CC(=O)O)NC(=O)[C@H](Cc3cnc[nH]3)NC(=O)[C@@H](Cc3ccccc3)NC(=O)[C@H]([C@@H](C)CC)NC(=O)[C@@H](CCCN)NC2=O)[C@@H](C)CC)CS1 [Bacitracin] + C[C@H]1c2cccc(O)c2C(=O)C2=C(O)[C@]3(O)C(=O)C(C(N)=O)=C(O)[C@@H](N(C)C)[C@@H]3[C@@H](O)[C@@H]21 [Doxycycline]
main component drawn
Details | Bliss interaction score
[1] | 0.101
[2] | -0.0867
[3] | -0.0186
[4] | 0.0989

fitness, [5], main component drawn
Details | first compound 37.5 µg/mL | first compound 75 µg/mL | first compound 150 µg/mL
partner 0.02 µg/mL | 0.844 | 0.81 | –
partner 0.04 µg/mL | 0.716 | 0.664 | 0.48
partner 0.08 µg/mL | 0.476 | 0.218 | 0.0689

CC(=O)NC[C@H]1CN(c2ccc(N3CCOCC3)c(F)c2)C(=O)O1 [Linezolid] + CO[C@@H]1[C@@H](OC(N)=O)[C@@H](O)[C@H](Oc2ccc3c(O)c(NC(=O)c4ccc(O)c(CC=C(C)C)c4)c(=O)oc3c2C)OC1(C)C [Novobiocin]
Details | Bliss interaction score
[1] | 0.0424
[2] | 0.046
[3] | 0.0413
[4] | -0.123

fitness, [5], one replicate
Details | partner 0.05 µg/mL | partner 0.1 µg/mL | partner 0.125 µg/mL | partner 0.2 µg/mL | partner 0.25 µg/mL | partner 0.5 µg/mL
first compound 0.0625 µg/mL | 0.871 | 0.925 | – | 0.885 | – | –
first compound 0.125 µg/mL | – | 0.595 | 0.846 | 0.554 | 0.727 | 0.578
first compound 0.25 µg/mL | – | 0.0625 | 0.349 | 0.0582 | 0.218 | 0.242
first compound 0.5 µg/mL | – | – | 0.069 | – | 0.0496 | 0.0575

fitness, [5]
Details | first compound 0.125 µg/mL | first compound 0.25 µg/mL | first compound 0.5 µg/mL
partner 0.0125 µg/mL | 0.659 | 0.23 | 0.0324
partner 0.025 µg/mL | 0.574 | 0.182 | 0.0304
partner 0.05 µg/mL | 0.597 | 0.0885 | 0.0285

CO[C@@H]1[C@@H](OC(N)=O)[C@@H](O)[C@H](Oc2ccc3c(O)c(NC(=O)c4ccc(O)c(CC=C(C)C)c4)c(=O)oc3c2C)OC1(C)C [Novobiocin] + CC1=C\[C@@H](O)CC(=O)Cc2nc(co2)C(=O)N2CCC=C2C(=O)O[C@H](C(C)C)[C@H](C)/C=C/C(=O)NC\C=C\1 [Virginiamycin M1]
Details | Bliss interaction score
[1] | 0.0833
[2] | 0.0734
[3] | 0.0284
[4] | 0.108

fitness, [5]
Details | first compound 0.0125 µg/mL | first compound 0.025 µg/mL | first compound 0.05 µg/mL
partner 0.0625 µg/mL | 0.925 | 0.987 | 0.97
partner 0.125 µg/mL | 0.942 | 0.954 | 0.948
partner 0.25 µg/mL | 0.922 | 0.997 | 0.937

fitness, [5], one replicate
Details | first compound 0.125 µg/mL | first compound 0.25 µg/mL | first compound 0.5 µg/mL
partner 0.0625 µg/mL | 0.967 | 0.867 | 0.58
partner 0.125 µg/mL | 0.973 | 0.875 | 0.571
partner 0.25 µg/mL | 0.927 | 0.884 | 0.561

CO[C@@H]1[C@@H](OC(N)=O)[C@@H](O)[C@H](Oc2ccc3c(O)c(NC(=O)c4ccc(O)c(CC=C(C)C)c4)c(=O)oc3c2C)OC1(C)C [Novobiocin] + CCN(CC)CCOC(=O)c1ccc(N)cc1 [Procaine]
Details | Bliss interaction score
[1] | 0.0431
[2] | 0.0449
[3] | 0.0326
[4] | -0.109

fitness, [5]
Details | first compound 0.0125 µg/mL | first compound 0.025 µg/mL | first compound 0.05 µg/mL
partner 85.5 µg/mL | 0.915 | 0.973 | 0.863
partner 171 µg/mL | 0.921 | 0.974 | 0.865
partner 342 µg/mL | 0.898 | 0.884 | 0.87

fitness, [5], one replicate
Details | first compound 0.125 µg/mL | first compound 0.25 µg/mL | first compound 0.5 µg/mL
partner 85.5 µg/mL | 0.905 | 0.822 | 0.543
partner 171 µg/mL | 0.856 | 0.821 | 0.562
partner 342 µg/mL | 0.866 | 0.784 | 0.638

CO[C@@H]1[C@@H](OC(N)=O)[C@@H](O)[C@H](Oc2ccc3c(O)c(NC(=O)c4ccc(O)c(CC=C(C)C)c4)c(=O)oc3c2C)OC1(C)C [Novobiocin] + CN1C2=CC=CC=C2N=C3C1=CC=CC3=O [Pyocyanin]
Details | Bliss interaction score
[1] | 0.044
[2] | -0.137
[3] | 0.0744
[4] | 0.116

fitness, [5]
Details | first compound 0.0125 µg/mL | first compound 0.025 µg/mL | first compound 0.05 µg/mL
partner 1.25 µg/mL | 0.881 | 0.916 | 0.929
partner 2.5 µg/mL | 0.847 | 0.827 | 0.858
partner 5 µg/mL | 0.733 | 0.71 | 0.749

fitness, [5], one replicate
Details | first compound 0.125 µg/mL | first compound 0.25 µg/mL | first compound 0.5 µg/mL
partner 1.25 µg/mL | 0.837 | 0.701 | 0.13
partner 2.5 µg/mL | 0.788 | 0.441 | 0.0992
partner 5 µg/mL | 0.454 | 0.229 | 0.164

CO[C@@H]1[C@@H](OC(N)=O)[C@@H](O)[C@H](Oc2ccc3c(O)c(NC(=O)c4ccc(O)c(CC=C(C)C)c4)c(=O)oc3c2C)OC1(C)C [Novobiocin] + CN(C)c1cc(NC(=O)CNC(C)(C)C)c(O)c2c1C[C@H]1C[C@H]3[C@H](N(C)C)C(O)=C(C(N)=O)C(=O)[C@@]3(O)C(O)=C1C2=O [Tigecycline]
Details | Bliss interaction score
[1] | 0.079
[2] | 0.034
[3] | 0.03
[4] | 0.0803

fitness, [5]
Details | first compound 0.0125 µg/mL | first compound 0.025 µg/mL | first compound 0.05 µg/mL
partner 0.039 µg/mL | 0.971 | ≥ 1 | ≥ 1
partner 0.078 µg/mL | 0.952 | 0.986 | 0.977
partner 0.156 µg/mL | 0.937 | 0.964 | 0.947

fitness, [5], one replicate
Details | first compound 0.05 µg/mL | first compound 0.1 µg/mL | first compound 0.125 µg/mL | first compound 0.2 µg/mL | first compound 0.25 µg/mL | first compound 0.5 µg/mL
partner 0.039 µg/mL | – | – | 0.893 | – | 0.888 | 0.501
partner 0.078 µg/mL | – | – | 0.924 | – | 0.818 | 0.508
partner 0.125 µg/mL | ≥ 1 | ≥ 1 | – | ≥ 1 | – | –
partner 0.156 µg/mL | – | – | 0.866 | – | 0.77 | 0.607
partner 0.25 µg/mL | 0.943 | 0.95 | – | ≥ 1 | – | –
partner 0.5 µg/mL | 0.953 | ≥ 1 | – | 0.999 | – | –

CN[C@@H]1[C@H](O)[C@H](NC)[C@H]2O[C@@]3(O)C(=O)C[C@@H](C)O[C@H]3O[C@@H]2[C@H]1O [Spectinomycin] + Oc1cc(Cl)ccc1Oc1ccc(Cl)cc1Cl [Triclosan]
Details | Bliss interaction score
[1] | -0.0648
[2] | -0.0762
[3] | 0.0626
[4] | 0.0557

CN[C@@H]1[C@H](O[C@H]2[C@H](O[C@H]3[C@H](O)[C@@H](O)[C@H](N=C(N)N)[C@@H](O)[C@@H]3N=C(N)N)O[C@@H](C)[C@]2(O)C=O)O[C@@H](CO)[C@H](O)[C@H]1O [Streptomycin] + CC[C@H]1OC(=O)[C@H](C)C(=O)[C@H](C)[C@@H](O[C@@H]2O[C@H](C)C[C@H](N(C)C)[C@H]2O)[C@](C)(OC)C[C@@H](C)C(=O)[C@H](C)[C@H]2N(CCCCn3cnc(-c4cccnc4)c3)C(=O)O[C@]12C [Telithromycin]
Details | Bliss interaction score
[1] | 0.0793
[2] | 0.0819
[3] | -0.109
[4] | -0.0487

CN[C@@H]1[C@H](O[C@H]2[C@H](O[C@H]3[C@H](O)[C@@H](O)[C@H](N=C(N)N)[C@@H](O)[C@@H]3N=C(N)N)O[C@@H](C)[C@]2(O)C=O)O[C@@H](CO)[C@H](O)[C@H]1O [Streptomycin] + Cc1cc(NS(=O)(=O)c2ccc(N)cc2)no1 [Sulfamethoxazol]
Details | Bliss interaction score
[1] | 0.0929
[2] | -0.126
[3] | 0.0497
[4] | 0.0624

CN[C@@H]1[C@H](O[C@H]2[C@H](O[C@H]3[C@H](O)[C@@H](O)[C@H](N=C(N)N)[C@@H](O)[C@@H]3N=C(N)N)O[C@@H](C)[C@]2(O)C=O)O[C@@H](CO)[C@H](O)[C@H]1O [Streptomycin] + Oc1cc(Cl)ccc1Oc1ccc(Cl)cc1Cl [Triclosan]
Details | Bliss interaction score
[1] | -0.06
[2] | -0.249
[3] | -0.0312
[4] | 0.0606
